Reference: US20260167638A1, “PHARMACEUTICAL COMPOUND, SALTS THEREOF, FORMULATIONS THEREOF, AND METHODS OF MAKING AND USING SAME” (Genentech, Inc., priority 2018, published 2026)
Values joined by “and” are separate entries in the source; they are usually repeats but may differ in a detail not shown here. Identical values can stand only once. Like-named read-outs stand apart in the source and are kept apart here.

Experiments:
[1] = Approximate solubility in MeOH/MTBE at room temperature; assay type: physicochemical; details: organic solvent or mixture
Procedure: The approximate solubility of mono-tosylate Type A was measured in MeOH/MTBE at room temperature. […] To achieve appropriate volumetric efficiency and yield, the starting concentration in MeOH was 250 mg/mL and the final ratio of the anti-solvent crystallization process in MeOH/MTBE (v/v) was 1:3.

[2] = Dissolution and precipitation in pH 6.5 phosphate buffer at 37° C. containing HPMC; assay type: physicochemical
From the text: The inclusion of HPMC in the tablet of Example 16 was to maintain the supersaturation of Compound I API after its mono-tosylate salt dissolves. […]

[3] = Solubility in pure water at 25° C. with PXRD of solid residues; assay type: physicochemical
Procedure: Using a similar strategy as described above, these salts were prepared by evaporation from a solution of free base and acid in a solvent (e.g., methanol-dichloromethane 1:1, ethyl acetate-dichloromethane 1:2, isopropanol, and the like). If necessary, an amorphous salt produced in this way was crystallized by stirring the amorphous material in an appropriate solvent (e.g., ethyl acetate, acetonitrile, and the like).

[4] = Example 20 crossover pharmacokinetics of two oral tablet formulations in dogs under fed conditions; assay type: in vivo, beagle dogs; parameters: Plasma concentration of Compound I at 24 hours / Plasma concentration of Compound I at 36 hours / Plasma concentration of Compound I at 0.5 hours / Plasma concentration of Compound I at 1 hour / Plasma concentration of Compound I at 2 hours: unit: ng/mL; details: 200 mg tablet PO
Procedure: Pharmacokinetics parameters of formulations of Compound I and its salts in dogs were determined by orally administering a test formulation tablet at 200 mg of active (Compound I or salt) per dog.
Blood samples were taken at various times after administration, plasma prepared, and submitted to analysis for parent drug using a qualified LC-MS-MS assay. Pharmacokinetics parameters derived from the plasma analytical data were determined using non-compartmental analysis.
Pharmacokinetics of Compound I were determined in pentagastrin-pretreated male beagle dogs following a single oral (PO) administration at 200 mg/tablet/dog in a 2-phase crossover study with a washout period of at least 7 days in between each phase. Six male, non-naive, purebred beagle dogs were used in each phase of the 2-phase crossover study. All dogs were pretreated with pentagastrin (6 μg/kg intramuscular administrations) approximately 30 minutes before test article administration.
Two tablet formulations (nanosuspension and mono-tosylate salt, as described above) of test article were assessed. Phase 1 animals were given tablets containing Compound I nanosuspension. Phase 2 animals were given tablets containing Compound I mono-tosylate salt. Animals in both phases were fasted overnight through approximately 4 hours postdose, and received a 100-mL volume of homogenized Food and Drug Administration (FDA) high fat diet by oral gavage at approximately 30 minutes prior to test article administration, followed by a 7 to 10-mL flush with water. Blood samples were collected pre-dose and at 0.25. 0.5, 1. 2. 4. 8, 24, 36, and 48 hours after the oral dose. Plasma was harvested, and the concentration of Compound I in each plasma sample was determined by an LC/MS/MS assay. The assay lower limit of quantitation was 20 ng/mL for Compound I.
Mean Compound I concentrations measured in plasma were used to construct semi-logarithmic plasma concentration-time curves (FIG. 14). Pharmacokinetic analysis was performed using non-compartmental methods.

[5] = Example 20, fed dogs (high fat diet), individual subjects, mono-tosylate salt
[6] = Example 20, fed dogs, individual subjects, LLOQ 20 ng/mL, mono-tosylate salt
[7] = male, beagle, dog, plasma, po, 200 mg, Example 20, fed dogs (high fat diet), mean

solubility ([1]; MeOH/MTBE (v/v, 1:2), read-out: approximate solubility in MeOH/MTBE (v/v, 1:2)): 9300 to 18600 µg/mL
solubility ([1]; MeOH/MTBE (v/v, 1:3), read-out: approximate solubility in MeOH/MTBE (v/v, 1:3)): < 5400 µg/mL
solubility ([1]; methanol, read-out: approximate solubility in MeOH): 264000 to 348000 µg/mL
Compound I concentration maintained ([2]; HPMC 5 μg/mL): 160 µg/mL
API concentration after dissolution ([2]; absence of HPMC, in 10 minutes): 80 µg/mL
pH (24 hrs) ([3]; pH of solubility sample, pure water, 25° C., 24 hours): 1.53
pH (1 hr) ([3]; pH of solubility sample, pure water, 25° C., one hour): 1.47
S 24 hrs ([3]; pure water, 25° C., 24 hours equilibration): 1.24 mg/mL
S 1 hr ([3]; pure water, 25° C., one hour): 2.54 mg/mL
solubility at 24 h ([3]; water, 25 °C, water, thermodynamic from solid, Table 5: free base and crystalline salt forms): 1240 µg/mL
Plasma concentration of Compound I at 48 hours ([4]; Example 20, fed dogs, individual subjects, LLOQ 20 ng/mL): BLQ
Plasma concentration of Compound I at 0.25 hours [4, 6]: BLQ (4×) and 381 and 41.0
Plasma concentration of Compound I at 48 hours ([4]; Example 20, fed dogs, mean, LLOQ 20 ng/mL): BLQ
tmax ([4]; male, beagle, dog, plasma, po, 200 mg, Example 20, fed dogs (high fat diet), individual subjects): 4 h
AUC(0-t) [4, 7]: 48800 ng·h/mL
tmax [4, 7]: 3 h
AUC ([4]; male, beagle, dog, plasma, po, 200 mg, Example 20, fed dogs (high fat diet), mean, read-out: AUC0-rt): 50900 ng·h/mL
Cmax ([4]; male, beagle, dog, plasma, po, 200 mg, Example 20, fed dogs (high fat diet), mean, read-out: Cmax): 5430 ng/mL
concentration at 0.25 h ([4]; male, beagle, dog, plasma, po, 200 mg/tablet/dog, Example 20, fed dogs, mean, LLOQ 20 ng/mL, read-out: Plasma concentration of Compound I at 0.25 hours): 70.3 ng/mL
concentration at 0.5 h ([4]; male, beagle, dog, plasma, po, 200 mg/tablet/dog, Example 20, fed dogs, mean, LLOQ 20 ng/mL, read-out: Plasma concentration of Compound I at 0.5 hours): 717 ng/mL
concentration at 1 h ([4]; male, beagle, dog, plasma, po, 200 mg/tablet/dog, Example 20, fed dogs, mean, LLOQ 20 ng/mL, read-out: Plasma concentration of Compound I at 1 hour): 2190 ng/mL
concentration at 2 h ([4]; male, beagle, dog, plasma, po, 200 mg/tablet/dog, Example 20, fed dogs, mean, LLOQ 20 ng/mL, read-out: Plasma concentration of Compound I at 2 hours): 4580 ng/mL
concentration at 4 h ([4]; male, beagle, dog, plasma, po, 200 mg/tablet/dog, Example 20, fed dogs, mean, LLOQ 20 ng/mL, read-out: Plasma concentration of Compound I at 4 hours): 4960 ng/mL
concentration at 8 h ([4]; male, beagle, dog, plasma, po, 200 mg/tablet/dog, Example 20, fed dogs, mean, LLOQ 20 ng/mL, read-out: Plasma concentration of Compound I at 8 hours): 2460 ng/mL
concentration at 24 h ([4]; male, beagle, dog, plasma, po, 200 mg/tablet/dog, Example 20, fed dogs, mean, LLOQ 20 ng/mL, read-out: Plasma concentration of Compound I at 24 hours): 847 ng/mL
concentration at 36 h ([4]; male, beagle, dog, plasma, po, 200 mg/tablet/dog, Example 20, fed dogs, mean, LLOQ 20 ng/mL, read-out: Plasma concentration of Compound I at 36 hours): 79.7 ng/mL
Structure (SMILES): Cc1ccc(S(=O)(=O)O)cc1.Cn1cc(-c2cn(-c3ccc(OC(F)(F)F)cc3)c(=O)c3ncn(C)c23)cn1 [mono-tosylate, 1-methyl-7-(1-methyl-1H-pyrazol-4-yl)-5-(4-(trifluoromethoxy)phenyl)-1,5-dihydro-4H-imidazo[4,5-c]pyridin-4-one, mono-tosylate salt]
maintenance of Compound I supersaturation ([2]; HPMC 1 or 2 μg/mL): did not substantially maintain Compound I supersaturation
AUC0-last [4, 5]: 59000 ng·h/mL and 75300 ng·h/mL and 68500 ng·h/mL and 26200 ng·h/mL and 16000 ng·h/mL and 47500 ng·h/mL
AUC0-rt [4, 5]: 59700 ng·h/mL and 70100 ng·h/mL and 26200 ng·h/mL and 47700 ng·h/mL
Cmax [4, 5]: 5340 ng/mL and 8590 ng/mL and 5160 ng/mL and 4930 ng/mL and 3490 ng/mL and 5080 ng/mL
Plasma concentration of Compound I at 1 hour [4, 6]: 107 and 6070 and 2340 and 3330 and 1200 and 97.9
Plasma concentration of Compound I at 2 hours [4, 6]: 2010 and 8270 and 5160 and 4930 and 2020 and 5080
Plasma concentration of Compound I at 4 hours [4, 6]: 5340 and 8590 and 4020 and 3770 and 3490 and 4530
Plasma concentration of Compound I at 8 hours [4, 6]: 3240 and 4900 and 1480 and 1020 and 1200 and 2920
